For one data set, the system named is murine fibroblasts L929. Nature of the data set: Cytotoxicity, MTT method, L929. In kind it is cell-based. The settings on record: Mus musculus, L929, 120 h, read-out: IC50 L929. The protocol: (§1) The cytotoxicity against the murine fibroblasts L929, human cervix carcinoma KB-3-1, human lung carcinoma A549, human prostate cancer PC-3, epidermoid carcinoma A431, ovarian carcinoma SKOV-3, and breast cancer MCF-7 cell lines was determined by using the MTT (2-(4,5-dimethylthiazol-2-yl)-2,5-diphenyltetrazolium bromide) method in 96-well microplates as previously described. Briefly, the cell lines were cultured in DMEM (Gibco), 60 µL aliquots of serial dilutions from an initial stock of 1 mg/mL in MeOH of the test compounds were added to 120 µL aliquots of a cell suspension (5 × 10^4 cells/mL) in 96-well microplates. After 5 days incubation, an MTT assay was performed, and the absorbance measured at 590 nm using an ELISA plate reader (Victor). The concentration at which the growth of cells was inhibited to 50% of the control (IC50) was obtained from the dose–response curves. Epothilone B was used as the positive control.
For orientation: Tetrazolium dyes change colour on reduction, which living cells bring about.

A further data set deals with ovarian carcinoma SKOV-3. As to the kind of experiment: Cytotoxicity, MTT method, SKOV-3. The settings on record: Homo sapiens, SK-OV-3, 120 h, 5 days incubation, na: not active. The class given is cell-based. The protocol:
as §1

Data set [1] concerns human prostate cancer PC-3. As to the kind of experiment: Cytotoxicity, MTT method, PC-3. In kind it is cell-based. The settings on record: 120 h, read-out: IC50 PC-3. The method, then: as §1
A further data set relates to breast cancer MCF-7. Nature of the data set: Cytotoxicity, MTT method, MCF-7. The class given is cell-based. Particulars: Homo sapiens, MCF7, 120 h, read-out: IC50 MCF-7. The protocol: as §1
In data set [2] the test system is epidermoid carcinoma A431. As to the kind of experiment: Cytotoxicity, MTT method, A431. The settings on record: Homo sapiens, A-431, 120 h, 5 days incubation, na: not active. In kind it is cell-based. The protocol: as §1
Data set [3] concerns L929, KB3-1, A549, PC-3, A431, SKOV-3 and MCF-7 cell lines. As to the kind of experiment: Cytotoxicity, MTT method, statements over the cell line panel. The class given is cell-based. The protocol: as §1
The subject of data set [4] is human cervix carcinoma KB-3-1. Nature of the data set: Cytotoxicity, MTT method, KB-3-1. The class given is cell-based. Particulars: KB 3-1, 120 h, 5 days incubation, na: not active, read-out: IC50 KB3.1. The method, then: as §1
In data set [5] the test system is human lung carcinoma A549. As to the kind of experiment: Cytotoxicity, MTT method, A549. In kind it is cell-based. Particulars: A549, 120 h, 5 days incubation, na: not active. The protocol:
as §1

Details of data set [6]: method as in PMID 28991218. The settings on record: cited from earlier work.
On the set-up of data set [7]: method as in PMID 28991218. Particulars: cited from earlier work. This is another data set of the same source.
The subject of a further data set is Caenorhabditis elegans. As to the kind of experiment: Nematicidal activity, microtiter plate assay. The class given is cell-based. The settings on record: for LD50 / LD90 / nematicidal activity (in words): C. elegans; for LD50 / LD90: tested at 100, 50, 25 and 12.5 μg/mL, no: not obtained; for mortality: at concentrations of 50 and 100 μg/mL. The protocol: Nematicidal activity was performed using Caenorhabditis elegans in a microtiter plate assay as described by Rupcic et al. (2018). The assay was performed in four concentrations (100, 50, 25 and 12.5 μg/mL). Ivermectin was used as a positive control at the same concentration ranges as the tested compounds and MeOH was used as a negative control. Percentages of mortality were calculated, then the results were expressed as a LD90 and LD50.

The next data set relates to Hs683. On the set-up: method as in PMID 36006179. The settings on record: human cancer cell line; cited from earlier work.
The subject of a further data set is A549. Also noted: method as in PMID 36006179. The settings on record: human cancer cell line; cited from earlier work.
The next data set relates to SKMEL-28. Also noted: method as in PMID 36006179. Particulars: human cancer cell line; cited from earlier work.
The mark [8] stands for this setting: MTT, 5 days incubation, na: not active.
Setting [9] is: all tested cell lines, read-out: IC50 values, range against all the tested cell lines.
The mark [10] stands for this setting: read-out: IC50 values, range against the L929 and KB3-1 cell lines.

The structures appear in SMILES notation. Entries after “also recorded” stand apart in the source; their conditions may differ. Where two headings read alike, the source gives them in different places.

In general, IC50 refers to the concentration that gives 50% inhibition. For `C=C(C)C(=O)O[C@H]1[C@H](/C=C/C)OC2=C(C(=O)O[C@]2(C)OC(=O)C2(C)CCC(C)=C(Cl)O2)[C@@H]1OC(=O)C(=C)C` (stereo partly drawn) [Compound 2, massarilactone D 3,4-di-O-methacryloyl-7-O-(6-chloro-3,4-dihydro-2,5-dimethyl-2H-pyran-2-carbonyl)], the IC50 is 5.09 µM with murine fibroblasts L929 (setting [8]); 11.8 µM in the data set with ovarian carcinoma SKOV-3; 11.8 µM in data set [1] (setting [8]); 7.09 µM with breast cancer MCF-7 (setting [8]); 4 µM in data set [2]; 3.51 to 32.7 µM in data set [3] (setting [9]). For the same molecule, the IC50 was found to be 13.1 µM in data set [4] and 32.7 µM in data set [5]. In data set [3] (all tested cell lines), the “cytotoxic activity (in words)” value was “significant cytotoxicity”.

Turning to `C/C=C/[C@@H]1OC2=C(C(=O)O[C@]2(C)O)[C@H](O)[C@H]1O` [Compound 1, Massarilactone D], the “antimicrobial activity (in words)” value in data set [6] is listed as “did not exhibit significant antimicrobial”. For the same molecule, in [7], the “cytotoxic activity (in words)” value is “did not exhibit significant antimicrobial or cytotoxic activities”. The “cytotoxic activity (in words)” value in [3] (all tested cell lines) is reported as “not active”. Also, in the data set with Caenorhabditis elegans, the LD50 entry is “not obtained and no”; the LD90 result is “no”; the mortality entry was “some mortality”.

For the molecule `C=C1OC(=O)C2=C1O[C@@H](/C=C/C)[C@H](OC(=O)/C=C/c1ccccc1)[C@H]2OC(=O)/C=C/c1ccccc1` [Compound 3, massarilactone H 3,4-di-O-trans-cinnamoyl], the IC50 was 5.58 µM in the data set on murine fibroblasts L929 (setting [8]); 13.2 µM in the data set with ovarian carcinoma SKOV-3; 7.64 µM in data set [1] (setting [8]); 3.51 µM in the data set with breast cancer MCF-7 (setting [8]); 4.34 µM in data set [2]; 3.51 to 32.7 µM in data set [3] (setting [9]). Besides, the IC50 in [4] stood at 7.85 µM; in data set [5] it was 19.6 µM. The “cytotoxic activity (in words)” value in data set [3] (all tested cell lines) is “significant cytotoxicity”. Also, in the data set with Caenorhabditis elegans, the “nematicidal activity (in words)” value is on record as “did not exhibit nematicidal activity”.

Regarding `C/C(=C\c1csc(C)n1)[C@@H]1C[C@@H]2O[C@]2(C)CCC[C@H](C)[C@H](O)[C@@H](C)C(=O)C(C)(C)[C@@H](O)CC(=O)O1` [epothilone B, Epothilone B, reference compound], the IC50 amounted to 0.0022 µM in the data set with murine fibroblasts L929, 9.1e-05 µM in [1] and 7.5e-05 µM in the data set with breast cancer MCF-7.

Turning to `C/C=C/C(=O)O[C@H]1C2=C(O[C@@H](/C=C/C)[C@@H]1O)[C@@](C)(OC(=O)/C=C/C)OC2=O` [Compound 8, massarilactone D 4,7-di-O-crotonyl], the IC50 in the data set on murine fibroblasts L929 (setting [8]) is 50.3 µM. Further, the IC50 in data set [3] (setting [10]) is 18.5 to 61.7 µM. Moreover, in the data set with Caenorhabditis elegans, the LD50 result is “not obtained and no”; the LD90 result is given as “no”; the mortality result is on record as “some mortality”. In addition, the IC50 in data set [4] was 18.5 µM.

As for `C/C=C/[C@@H]1OC2=C(C(=O)O[C@]2(C)O)[C@H](O)[C@H]1OC(=O)/C(C)=C/C` [Compound 6, massarilactone D 7-O-trans-2-methyl-2-butenoyl], in the data set on Caenorhabditis elegans, the LD50 entry is “not obtained and no”; the LD90 entry is “no”; the mortality result is given as “some mortality”.

Take `C/C=C/[C@@H]1OC2=C(C(=O)O[C@]2(C)OC(=O)c2ccc(Br)cc2)[C@H](OC(=O)c2ccc(Br)cc2)[C@H]1OC(=O)c1ccc(Br)cc1` [Compound 5, massarilactone D 3,4,7-tri-O-bromobenzoyl]: in the data set with Caenorhabditis elegans, the LD50 is on record as 100 µg/mL; the LD90 entry is “not obtained and no”.

Take `C/C=C/C(=O)O[C@H]1C2=C(O[C@@H](/C=C/C)[C@@H]1O)[C@@](C)(OC)OC2=O` [Compound 7, massarilactone D 4-O-crotonyl-7-O-methyl]: the IC50 in the data set with murine fibroblasts L929 (setting [8]) stood at 61.7 µM. The IC50 in data set [3] (setting [10]) is 18.5 to 61.7 µM. Further, in the data set with Caenorhabditis elegans, the LD50 result was “not obtained and no”; the LD90 entry is “no”; the mortality entry was “some mortality”. In addition, the IC50 in [4] stood at 55.6 µM.

As to `C=C1OC(=O)C2=C1OC(/C=C/C)C(O)C2O` (stereo not drawn) [massarilactone H], the figures for the IC50 in the data set on Hs683, with A549 and with SKMEL-28 were 31.5 µM, 32.9 µM and 35.2 µM, respectively.

Regarding `C/C=C/[C@@H]1OC2=C(C(=O)O[C@]2(C)OC(=O)/C=C/c2ccccc2)[C@H](OC(=O)/C=C/c2ccccc2)[C@H]1OC(=O)/C=C/c1ccccc1` [Compound 4, massarilactone D 3,4,7-tri-O-trans-cinnamoyl], in the data set with Caenorhabditis elegans, the “nematicidal activity (in words)” value is reported as “potent activity against nematodes; also recorded: good nematicidal activity”, the LD50 was found to be 12.5 µg/mL and the LD90 stood at 100 µg/mL.

The values above are taken from PMC11931645, “Semisynthetic derivatives of massarilactone D with cytotoxic and nematicidal activities” (Beilstein Journal of Organic Chemistry, 2025).
